{"source": "patent US8586603B2", "about": "“Aminotetraline derivatives” (priority 2009, dated 2013)", "key": {"[1]": {"target": "T1, human dopamine receptor subtype hD3 (Homo sapiens, UniProt P35462)", "T1 construct": "expressed in transfected cells; host or cells: CHO", "T1 sequence (P35462 whole entry)": "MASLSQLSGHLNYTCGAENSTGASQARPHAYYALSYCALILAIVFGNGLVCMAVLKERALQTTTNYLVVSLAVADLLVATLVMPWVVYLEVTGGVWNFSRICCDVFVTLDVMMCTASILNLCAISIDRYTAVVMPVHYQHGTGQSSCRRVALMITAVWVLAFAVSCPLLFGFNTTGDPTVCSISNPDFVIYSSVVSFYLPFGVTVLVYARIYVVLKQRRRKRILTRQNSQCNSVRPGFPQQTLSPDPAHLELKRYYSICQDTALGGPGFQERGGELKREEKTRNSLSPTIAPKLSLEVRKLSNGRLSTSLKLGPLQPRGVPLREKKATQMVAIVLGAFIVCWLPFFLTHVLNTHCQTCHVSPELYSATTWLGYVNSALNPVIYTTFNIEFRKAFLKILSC", "test": "Receptor binding assay, [3H]spiperone competition, CHO cell membranes", "method": "(§1) Receptor binding data were determined when performing competition binding assays with membrane preparations of cloned cells (stably transfected Chinese Hamster Ovary cells (CHO)) expressing the human receptors and the following radioligands: [^3H]spiperone at the human dopamine receptor subtypes hD2long, hD2short, D3, and hD4.4.\n(§2) Selectivity ratios were calculated by division of the Ki values of the various compounds at the respective receptors through the Ki values at the 5HT1a receptor."}, "[2]": {"target": "T2, human dopamine receptor subtype hD2short (Homo sapiens, UniProt P14416)", "T2 construct": "expressed in transfected cells; host or cells: CHO", "T2 sequence (P14416 1-414 isoform P14416-2)": "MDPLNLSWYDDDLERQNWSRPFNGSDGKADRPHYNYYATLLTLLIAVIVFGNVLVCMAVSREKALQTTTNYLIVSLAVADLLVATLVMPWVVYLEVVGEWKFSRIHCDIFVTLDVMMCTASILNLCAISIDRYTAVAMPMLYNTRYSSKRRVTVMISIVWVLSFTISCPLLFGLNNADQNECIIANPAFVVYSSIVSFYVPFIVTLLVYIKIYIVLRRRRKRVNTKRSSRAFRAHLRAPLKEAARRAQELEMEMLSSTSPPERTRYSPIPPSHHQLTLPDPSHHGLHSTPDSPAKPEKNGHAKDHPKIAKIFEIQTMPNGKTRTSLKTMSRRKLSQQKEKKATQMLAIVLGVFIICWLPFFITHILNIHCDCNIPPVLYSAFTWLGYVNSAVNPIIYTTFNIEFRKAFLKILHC", "test": "Receptor binding assay, [3H]spiperone competition, CHO cell membranes", "method": "as §1, §2"}, "[3]": {"target": "T3, human dopamine receptor subtype hD2long (Homo sapiens, UniProt P14416)", "T3 construct": "expressed in transfected cells; host or cells: CHO", "T3 sequence (P14416 whole entry)": "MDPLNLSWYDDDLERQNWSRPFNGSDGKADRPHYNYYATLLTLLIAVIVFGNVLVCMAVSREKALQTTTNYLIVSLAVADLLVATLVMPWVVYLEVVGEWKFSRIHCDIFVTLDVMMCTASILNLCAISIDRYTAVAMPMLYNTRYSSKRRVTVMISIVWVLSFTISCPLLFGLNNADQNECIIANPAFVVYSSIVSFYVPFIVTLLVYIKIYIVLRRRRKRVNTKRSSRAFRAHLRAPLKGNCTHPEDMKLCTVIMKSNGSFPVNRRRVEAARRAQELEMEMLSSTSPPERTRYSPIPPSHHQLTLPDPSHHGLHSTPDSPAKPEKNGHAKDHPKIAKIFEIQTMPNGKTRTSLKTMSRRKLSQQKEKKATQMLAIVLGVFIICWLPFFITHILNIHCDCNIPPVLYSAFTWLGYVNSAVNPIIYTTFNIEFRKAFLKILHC", "test": "Receptor binding assay, [3H]spiperone competition, CHO cell membranes", "method": "as §1, §2"}, "[4]": {"target": "T4, porcine striatal pD1 dopamine receptor (Sus scrofa, UniProt P50130)", "T4 construct": "membrane homogenates prepared from porcine striatal or cortical tissue; from tissue; host or cells: porcine striatum", "T4 sequence (P50130 whole entry)": "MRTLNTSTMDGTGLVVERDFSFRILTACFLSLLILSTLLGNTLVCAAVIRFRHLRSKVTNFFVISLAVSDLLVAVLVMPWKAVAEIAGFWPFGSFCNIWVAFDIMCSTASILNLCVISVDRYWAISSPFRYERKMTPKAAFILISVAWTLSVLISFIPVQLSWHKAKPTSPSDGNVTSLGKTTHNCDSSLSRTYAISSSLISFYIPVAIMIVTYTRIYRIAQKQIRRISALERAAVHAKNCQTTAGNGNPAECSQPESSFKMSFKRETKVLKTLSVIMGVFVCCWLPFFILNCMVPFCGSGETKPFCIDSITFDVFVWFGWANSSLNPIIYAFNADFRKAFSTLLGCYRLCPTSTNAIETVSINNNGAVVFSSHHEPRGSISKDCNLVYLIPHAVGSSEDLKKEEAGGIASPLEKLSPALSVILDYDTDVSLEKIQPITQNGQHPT", "test": "Receptor binding assay, [3H]SCH 23390 competition, porcine striatal membranes"}, "[5]": {"target": "T5, human dopamine receptor subtype hD4.4 (Homo sapiens, UniProt P21917)", "T5 construct": "expressed in transfected cells; host or cells: CHO", "T5 sequence (P21917 1-419)": "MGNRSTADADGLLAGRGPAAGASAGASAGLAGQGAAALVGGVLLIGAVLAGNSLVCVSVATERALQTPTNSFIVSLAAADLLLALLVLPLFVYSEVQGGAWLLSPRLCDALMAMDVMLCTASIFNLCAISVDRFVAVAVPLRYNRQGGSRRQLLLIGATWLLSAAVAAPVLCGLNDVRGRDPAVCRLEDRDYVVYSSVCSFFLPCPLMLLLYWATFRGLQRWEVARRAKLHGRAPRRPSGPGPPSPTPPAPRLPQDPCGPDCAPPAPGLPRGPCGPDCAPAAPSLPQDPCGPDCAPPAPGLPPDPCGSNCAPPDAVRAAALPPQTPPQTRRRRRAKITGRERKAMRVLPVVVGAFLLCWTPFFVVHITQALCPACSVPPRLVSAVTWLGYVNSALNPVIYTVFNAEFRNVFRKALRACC", "test": "Receptor binding assay, [3H]spiperone competition, CHO cell membranes", "method": "as §1, with “hD4.4. […].” for “hD4.4.”\nas §2"}, "[6]": {"test": "Stability in PBS buffer pH 7.4 and SGF with 0.5% DMSO", "assay_type": "physicochemical", "conditions": "37° C.", "method": "5 μL DMSO stock solution of compound 1 (2 mg/mL) were diluted with […] PBS buffer pH 7.4 and 995 μL Simulated Gastric Fluid (SGF). After dilution the samples were immediately analysed by HPLC. After the initial injection, each sample solution was repeatedly injected over a period of approximately 12 hours."}, "[7]": {"target": "porcine cortical pα2 adrenergic receptor", "test": "Receptor binding assay, [3H]RX821002 competition, porcine cortical membranes", "conditions": "means of 2-8 individual experiments each done as triplicate"}, "[8]": {"system": "formalin-induced hind paw licking in CD-1 mice", "test": "Animal pain test (formalin assay)", "assay_type": "in vivo", "conditions": "for % Inhibition of hind paw licking time: vs vehicle", "method": "The formalin test is being widely accepted as a valid basic model of persistent clinical pain, and may indicate a compound's efficacy in neuropathic and/or inflammatory pain conditions.\nCompound 1 and a comparator (gabapentin 100 mg/kg) were administered to groups of 5 or 10 CD-1 (Crl.) derived male mice weighing 24±2 g. Test substances and vehicle (0.2% HPMC/0.9% NaCl) were each administered by intraperitoneal injection (gabapentin) or oral gavage (compound 1) 15 or 30 minutes before subplantar injection of formalin (0.02 ml, 2% solution). Reduction of the formalin-induced hind paw licking time recorded at 5-minute interval during the following 0- to 35-minute after formalin injection by 50 percent or more (≧50%) indicated significant analgesic activity. Also, statistical analysis was performed by using one-way ANOVA followed by Dunnett's test to compare the test compound-treated and vehicle control groups. Significance is considered at P<0.05 level. Acute toxic symptoms and autonomic effects were observed after the administration of test compounds."}, "[9]": {"test": "Pig skin permeation from patch", "assay_type": "in vitro ADME", "method": "The in vitro permeation of compound 1 through pig skin from saturated solution (f1) and from a patch (f2) was investigated.\nFor this permeation experiments Franz diffusion cells with a diffusion area of 2.54 cm^2 and an acceptor volume of approx. 100 mL were used. For the study pig leg skin with a thickness of 300-500 μm was used. The permeation experiments were performed at a temperature of 32° C. and the acceptor medium (phosphate buffer pH 6.2) was slowly stirred. A patch of 2.54 cm^2 area comprising about 5 wt % of compound 1 in a hydrophobic adhesive layer was fixed on the skin surface. The experiments were performed in triplicate (n=3) over a period of 48 hours. During this time period six samples at different time points (after 2, 4, 6, 8, 24 and 48 hours) were taken. After each individual incubation period the concentration of the test compound in the acceptor medium was analysed by HPLC at 275 nm, 20° C., 2.0 mL/min in acetonitrile/water/TFA."}, "[10]": {"target": "T6, porcine cortical p5-HT2 serotonin receptor (Sus scrofa, UniProt P50129)", "T6 construct": "membrane homogenates prepared from porcine striatal or cortical tissue; from tissue; host or cells: porcine cortex", "T6 sequence (P50129 whole entry)": "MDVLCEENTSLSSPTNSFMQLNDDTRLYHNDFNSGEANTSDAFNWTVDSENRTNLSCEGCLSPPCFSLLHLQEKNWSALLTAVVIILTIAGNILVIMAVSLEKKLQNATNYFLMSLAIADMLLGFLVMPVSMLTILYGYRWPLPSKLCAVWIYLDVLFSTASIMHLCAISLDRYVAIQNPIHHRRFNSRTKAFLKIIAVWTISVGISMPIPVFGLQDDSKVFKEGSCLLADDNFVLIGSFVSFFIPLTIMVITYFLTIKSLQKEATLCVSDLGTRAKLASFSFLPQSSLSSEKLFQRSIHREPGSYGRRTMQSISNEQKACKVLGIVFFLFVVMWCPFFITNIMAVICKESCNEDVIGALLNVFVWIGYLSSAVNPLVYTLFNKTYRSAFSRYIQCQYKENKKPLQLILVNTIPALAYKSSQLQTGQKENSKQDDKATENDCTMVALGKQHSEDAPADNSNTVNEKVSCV", "test": "Receptor binding assay, [3H]ketanserin competition, porcine cortical membranes"}, "[11]": {"conditions": "means of 2-8 individual experiments each done as triplicate"}, "[12]": {"conditions": "5 mg/kg oral, interval 0-5 minutes"}, "[13]": {"conditions": "5 mg/kg oral, interval 5-10 minutes"}, "[14]": {"conditions": "5 mg/kg oral, interval 10-15 minutes"}, "[15]": {"conditions": "5 mg/kg oral, interval 15-20 minutes"}, "[16]": {"conditions": "5 mg/kg oral, interval 20-25 minutes"}, "[17]": {"conditions": "5 mg/kg oral, interval 25-30 minutes"}, "[18]": {"conditions": "5 mg/kg oral, interval 30-35 minutes"}, "[19]": {"conditions": "10 mg/kg oral, interval 0-5 minutes"}, "[20]": {"conditions": "10 mg/kg oral, interval 5-10 minutes"}, "[21]": {"conditions": "10 mg/kg oral, interval 20-25 minutes"}, "[22]": {"conditions": "10 mg/kg oral, interval 25-30 minutes"}, "[23]": {"conditions": "10 mg/kg oral, interval 30-35 minutes"}}}
{"compound": "CCCN(CCc1cccs1)C1CCc2cccc(O)c2C1", "note": "(stereo not shown) [Compound 1, N-(8-Hydroxytetralin-2-yl)-N-propyl-N-[2-(2-thienyl)ethyl]amine]", "values": [{"measurement": "Ki", "setting": "[1]; [11]", "value": 190, "unit": "nM"}, {"measurement": "selectivity ratio hD3", "setting": "[1]; vs p5-HT1a", "value": 260}, {"measurement": "Ki", "setting": "[2]; [11]", "value": 260, "unit": "nM"}, {"measurement": "selectivity ratio hD2short", "setting": "[2]; vs p5-HT1a", "value": 360}, {"measurement": "Ki", "setting": "[3]; [11]", "value": 260, "unit": "nM"}, {"measurement": "selectivity ratio hD2long", "setting": "[3]; vs p5-HT1a", "value": 360}, {"measurement": "Ki", "setting": "[4]; [11]", "value": 9400, "unit": "nM"}, {"measurement": "selectivity ratio pD1", "setting": "[4]; vs p5-HT1a", "value": "13 000"}, {"measurement": "Ki", "setting": "[5]; [11]", "value": 190, "unit": "nM"}, {"measurement": "selectivity ratio hD4.4", "setting": "[5]; vs p5-HT1a", "value": 260}, {"measurement": "degradation (stability)", "setting": "[6]; PBS buffer pH 7.4, 12 hours", "value": "No degradation"}, {"measurement": "degradation (stability)", "setting": "[6]; simulated gastric fluid (pH 1-2), 12 hours", "value": "No degradation"}, {"measurement": "Ki", "setting": "[7]", "value": 68, "unit": "nM"}, {"measurement": "analgesic effect", "setting": "[8]; 1 mg/kg oral administration", "value": "no analgesic effect"}, {"measurement": "analgesic effect", "setting": "[8]; 3 mg/kg oral administration", "value": "some effect"}, {"measurement": "Hind Paw Licking Times", "setting": "[8]; [12]", "value": "63.4 ± 7.2", "unit": "s"}, {"measurement": "% Inhibition of hind paw licking time", "setting": "[8]; [12]", "value": "(18%)"}, {"measurement": "Hind Paw Licking Times", "setting": "[8]; [13]", "value": "10.2 ± 3.9", "unit": "s"}, {"measurement": "% Inhibition of hind paw licking time", "setting": "[8]; [13]", "value": "(0%)"}, {"measurement": "Hind Paw Licking Times", "setting": "[8]; [14]", "value": "25.1 ± 11.6", "unit": "s"}, {"measurement": "% Inhibition of hind paw licking time", "setting": "[8]; [14]", "value": "(54%)"}, {"measurement": "Hind Paw Licking Times", "setting": "[8]; [15]", "value": "56.7 ± 18", "unit": "s"}, {"measurement": "% Inhibition of hind paw licking time", "setting": "[8]; [15]", "value": "(44%)"}, {"measurement": "Hind Paw Licking Times", "setting": "[8]; [16]", "value": "54.7 ± 9.4", "unit": "s"}, {"measurement": "% Inhibition of hind paw licking time", "setting": "[8]; [16]", "value": "(12%)"}, {"measurement": "Hind Paw Licking Times", "setting": "[8]; [17]", "value": "54.7 ± 15.1", "unit": "s"}, {"measurement": "% Inhibition of hind paw licking time", "setting": "[8]; [17]", "value": "(0%)"}, {"measurement": "Hind Paw Licking Times", "setting": "[8]; [18]", "value": "24.7 ± 9.8", "unit": "s"}, {"measurement": "% Inhibition of hind paw licking time", "setting": "[8]; [18]", "value": "(0%)"}, {"measurement": "analgesic effect", "setting": "[8]; 10 mg/kg oral administration, 10-20 minutes period", "value": "significant analgesic effect"}, {"measurement": "Hind Paw Licking Times", "setting": "[8]; [19]", "value": "64.3 ± 7.3", "unit": "s"}, {"measurement": "% Inhibition of hind paw licking time", "setting": "[8]; [19]", "value": "(16%)"}, {"measurement": "Hind Paw Licking Times", "setting": "[8]; [20]", "value": "0 ± 0", "unit": "s"}, {"measurement": "% Inhibition of hind paw licking time", "setting": "[8]; [20]", "value": "(100%)"}, {"measurement": "% Inhibition of hind paw licking time", "setting": "[8]; 10 mg/kg oral, interval 10-15 minutes", "value": "(96%)"}, {"measurement": "% Inhibition of hind paw licking time", "setting": "[8]; 10 mg/kg oral, interval 15-20 minutes", "value": "(69%)"}, {"measurement": "Hind Paw Licking Times", "setting": "[8]; [21]", "value": "37.5 ± 13.6", "unit": "s"}, {"measurement": "% Inhibition of hind paw licking time", "setting": "[8]; [21]", "value": "(40%)"}, {"measurement": "Hind Paw Licking Times", "setting": "[8]; [22]", "value": "29.9 ± 12.7", "unit": "s"}, {"measurement": "% Inhibition of hind paw licking time", "setting": "[8]; [22]", "value": "(0%)"}, {"measurement": "Hind Paw Licking Times", "setting": "[8]; [23]", "value": "12.8 ± 8.8", "unit": "s"}, {"measurement": "% Inhibition of hind paw licking time", "setting": "[8]; [23]", "value": "(10%)"}, {"measurement": "activity in an oral animal model of pain", "setting": "[8]; oral", "value": "active"}, {"measurement": "penetration of skin in an in vitro skin model of transdermal penetration", "setting": "[9]; in words", "value": "able to penetrate skin"}, {"measurement": "average flux rate from patch", "setting": "[9]; patch 2.54 cm^2, about 5 wt % compound 1 in hydrophobic adhesive layer, pig leg skin, 32° C., 48 hours", "value": 4.0, "unit": "μg/cm^2/h"}, {"measurement": "Measured Flux Rate (patch)", "setting": "[9]; patch, pig skin", "value": 4.01, "unit": "μg μg per cm^2/h"}, {"measurement": "Extrapolated daily flux rate", "setting": "[9]; per 30 cm^2 patch/24 hrs", "value": 2.88, "unit": "mg"}, {"measurement": "Ki", "setting": "[10]; [11]", "value": 3600, "unit": "nM"}, {"measurement": "selectivity ratio p5-HT2", "setting": "[10]; vs p5-HT1a", "value": "4 900"}]}
